Results published in patent US20240158348A1, “HERBICIDAL CYCLIC AMIDES N-SUBSTITUTED WITH A HALOALKYLSULFONYLANILIDE GROUP” (FMC Corporation, priority 2021, published 2024).

What was measured:
Type in all cases: in vivo
[1] = test system: blackgrass (Alopecurus myosuroides); assay: Test C postemergence, blackgrass; conditions: 125 g ai/ha Postemergence; 0 is no effect, 100 is complete control
[2] = test system: ryegrass, Italian (Italian ryegrass, Lolium multiflorum); assay: Test C postemergence, Italian ryegrass; conditions: visual injury, 0 to 100 scale (0 no effect, 100 complete control)
Procedure, shortened: (§1)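 Pre: soil sprayed at seeding. Post: seedlings treated at 1–2 leaves (2–10 cm). Vehicle non-phytotoxic solvent mix with surfactant; loam–sand medium; greenhouse; visual injury read at 10 or 12 days, scale 0–100.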

[3] = test system: ryegrass, Italian (Italian ryegrass, Lolium multiflorum); assay: Test C preemergence, Italian ryegrass; conditions: 0 is no effect, 100 is complete control
Procedure, shortened: as §1

[4] = test system: sedge, umbrella (small-flower umbrella sedge, Cyperus difformis); assay: Test D flooded paddy test, umbrella sedge; design: key: 0 = no effect, 100 = complete control; conditions: 250 g ai/ha, Flood; applied to paddy water at 2-leaf stage; visual rating after 13 days; scale 0 (no effect) to 100 (complete control)
Procedure, shortened: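 Plants were grown to the 2-leaf stage, then pots were flooded to 3 cm above soil and compounds applied directly into the paddy water, with that depth held throughout. After 13 days in a greenhouse, injury was visually rated against untreated controls on a 0–100 scale (0 no effect, 100 complete control).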

SMILES | Plant response rating (0 to 100 scale), Blackgrass [1] | Ryegrass, Italian plant response rating ([2]; 31 g ai/ha Postemergence) | Ryegrass, Italian plant response rating ([2]; 125 g ai/ha Postemergence) | Plant response rating (0 to 100 scale), Ryegrass, Italian ([3]; 31 g ai/ha Preemergence) | Plant response rating (0 to 100 scale), Ryegrass, Italian ([3]; 125 g ai/ha Preemergence) | Plant response rating, Sedge, Umbrella [4]
Cc1c(NS(=O)(=O)C(F)(F)F)cc(N2CCC(OC3CCC3)C2=O)c(C)c1F (stereo not drawn) [Compound 25] | 90 | 20 | 70 | 90 | 100 | 90
Cc1c(NS(=O)(=O)C(F)(F)F)cc(N2CCC(OC3CC3)C2=O)c(C)c1F (stereo not drawn) [Compound 26] | 90 | 60 | 100 | 90 | 100 | 95
Cc1c(N2CCC(OC3CCC3)C2=O)cc(N(COC(=O)C(C)(C)C)S(=O)(=O)C(F)(F)F)c(C)c1F (stereo not drawn) [Compound 28] | 70 | 40 | 40 | 30 | 90 | 95
Cc1cc(Cl)c(N(COC(=O)C(C)(C)C)S(=O)(=O)C(F)(F)F)cc1N1CCC(OC2CC2)C1=O (stereo not drawn) [Compound 33] | 60 | 20 | 90 | 20 | 100 | 90
Cc1c(NS(=O)(=O)C(F)(F)F)cc(N2CCCC(OC3CCC3)C2=O)c(C)c1F (stereo not drawn) [Compound 36] | 30 | 0 | 40 | 100 | 100 | 95
Cc1c(N2CCCC(OC3CC3)C2=O)cc(N(COC(=O)C(C)(C)C)S(=O)(=O)C(F)(F)F)c(C)c1F (stereo not drawn) [Compound 37] | 60 | 0 | 60 | 30 | 70 | 95
CC(=O)N(c1cc(N2CCC(OC3CC3)C2=O)c(C)cc1Cl)S(=O)(=O)C(F)(F)F (stereo not drawn) [Compound 38] | 70 | 30 | 70 | 80 | 100 | 75
Cc1c(N2CCCC(OC3CCC3)C2=O)cc(N(COC(=O)C(C)(C)C)S(=O)(=O)C(F)(F)F)c(C)c1F (stereo not drawn) [Compound 39] | 10 | 0 | 30 | 0 | 60 | 95
COC(=O)N(c1cc(N2CCC(OC3CC3)C2=O)c(C)cc1Cl)S(=O)(=O)C(F)(F)F (stereo not drawn) [Compound 40] | 60 | 60 | 80 | 90 | 100 | 90
